# Measured values from patent publication US20100099756A1, “USES OF INCENSOLE, INCENSOLE ACETATE AND DERIVATIVES THEREOF” (YISSUM RESEARCH DEVELOPMENT COMPANY OF THE HEBREW …, priority 2006, published 2010).
# Columns and labels:
# NO generation = experiment: Nitric oxide (NO) levels in LPS-activated murine peritoneal macrophages; type: cell-based, mice
# Procedure: (A(1)) Representative Western Blot bands of Cox2 are shown with tubulin as reference. (A(2)) COX-2 levels were measured in RAW 264.7 cells incubated for 24 hrs. with LPS in the presence or in the absence of IA (60 μM/ml); **, p<0.001. (B) Murine peritoneal macrophages were activated by LPS (1 μg/ml for 24 hrs.) in absence of IA or in the presence of IA at indicated concentrations. NO generation was determined by measuring the nitrite accumulated in the supernatants; **, p<0.001. (C) Generation of ROS by RAW 264.7 macrophages (5×10^5 cells in 0.5 ml Hanks' balanced salt solution) was measured by chemiluminescence. Cells were pre-incubated with various doses of IA for 24 hrs before luminol (10 μl) and zymosan (30 μl) were added to the tubes; *, p<0.05; **, p<0.01; ***, p<0.001
# Peritoneal macrophages were harvested from C57BL/6 female mice four days after intraperitoneal injection of 1.5 ml of a 3% thioglycollate medium (Difco, N.J., USA). […]
# Nitric Oxide (NO) Levels. […] NO generation was determined by measuring the nitrite accumulated in the supernatants (100 μl) of the IA-treated macrophages as follows. […] Following 10 min of incubation at room temperature, the color production was measured at 550 nm with an ELISA reader. The concentration of the nitrite was calculated according to a standard curve.
# closed head injury [1] = experiment: Neurological severity score (NSS) recovery after closed head injury (CHI); type: in vivo, mice; details: 50 mg/kg i.p.
# Procedure: This effect was sustained from 24 h to 21 days following injury as determined by the Mann-Whitney test (n=9-10 per group; * p<0.01; **p<0.001, as compared to vehicle treated, at the same day). (B) Mice were subjected to the object recognition test (Example 6) 3, 7, 14 and 21 days after CHI. The absolute time spent exploring each of the two objects was recorded and the % time calculated. At baseline (bl), when presented with two identical objects, exploration time of each object was about 50% in both groups. In the test (T) situation, after one of the objects was replaced by a novel one the % time spent exploring the new object was calculated.
# At 1 h after CHI, the functional status of the mice was evaluated according to a set of 10 neurobehavioral tasks (neurological severity score, NSS) that tests reflexes, alertness coordination, and motor abilities. One point was awarded for absence of reflex or failure to perform a particular task. […] Mice were equally divided to vehicle\ IA groups according to their NSS scores. Only mice with NSS>4 at 1 h after injury were included in the study. […] Recovery (ΔNSSt) was defined as the difference between NSS1h and NSS measured at any later time point and was determined at several time points up to 21 days following CHI.
# closed head injury [2] = experiment: Tissue edema formation (tissue water content) after CHI; type: in vivo, mice; details: left (ipsilateral) hemisphere, 24 h after injury; P=0.15 vs vehicle
# c-Fos = c-Fos immunoreactivity in mouse brain; type: in vivo, female Sabra mice; details: 50 mg/kg i.p., 60 min after administration
# Source text: The drawings were modified from plates 30; 38,45, 89 respectively from Paxinos and Franklin (2001). The atlas sections are arranged from anterior a to posterior d. The number under each section indicates its distance (mm) from the bregma. “A” is anterior to bregma and “P” is posterior to bregma.
# For analysis of c-Fos immunoreactivity, positive nuclei were identified based on their round form and optical density at least twice that of background. The numbers of c-Fos immunoreactive nuclei from the right and left hemispheres were averaged to obtain a representative number for the given region from each mouse. Student t tests were performed comparing the control (vehicle) with the IA group.
# The effect of IA on different brain regions were studied by looking at the effect of IA on c-Fos immunoreactivity in mice brains 60 min after administration of IA (50 mg/kg; i.p.). The c-Fos transcription factor is a product of an immediate early gene and its increase serves as a marker of enhanced neuronal activity. It is thus used in histological sections to map out brain regions that are activated or attenuated after treatment with psychoactive drugs [Werme, M., Ringholm, A., Olson, L. & Brene S. Differential patterns of induction of NGFI-B, Norl and c-fos mRNAs in striatal subregions by haloperidol and clozapine. Brain Res. 863, 112-119 (2000); and Dragunow, M., Robertson, G. S., Faull, R. L., Robertson, H. A. & Jansen, K. D2 dopamine receptor antagonists induce fos and related proteins in rat striatal neurons. (1990) Neuroscience 37, 287-294]. […] The central nucleus of the amygdala and the lateral septum play major roles in the expression of emotions [Thompson, B. L. & Rosen, J. B. Immediate-early gene expression in the central nucleus of the amygdala is not specific for anxiolytic or anxiogenic drugs. Neuropharmacology 50, 57-68 (2006); and Henry, B., Vale, W. & Markou, A. The effect of lateral septum corticotropin-releasing factor receptor 2 activation on anxiety is modulated by stress. J. Neurosci. 26, 9142-9152 (2006)]; it is assumed that c-Fos expression in the central nucleus of the amygdala is due to circuits that are engaged by both anxiolytic and anxiogenic drugs [Thompson, B. L. & Rosen, J. B. Immediate-early gene expression in the central nucleus of the amygdala is not specific for anxiolytic or anxiogenic drugs. Neuropharmacology 50, 57-68 (2006).]
smiles,measurement,setting,value
"CC(=O)OC1CC/C(C)=C/CC/C(C)=C/CC2(C(C)C)CCC1(C)O2 (centres unmarked) [IA, incensole acetate]","NO generation (nitrite in supernatants), dose dependence","NO generation; LPS 1 μg/ml for 24 hrs, ANOVA P<0.0001",inhibited NO generation in a dose dependent manner
same,NO production,"NO generation; at 80 μM, p=0.0022",about 45%
same,ΔNSS (recovery of motor ability),"closed head injury [1]; 24 h after injury, P=0.002 vs vehicle",1.00±0.12
same,ΔNSS at subsequent time points,"closed head injury [1]; up to 3 weeks post injury, vs vehicle",significantly higher
same,tissue water content,closed head injury [2],81.47±0.35%
same,c-Fos in the central nucleus of the amygdala,c-Fos,significantly increased c-Fos
same,c-Fos in the hippocampal CA3 region,c-Fos,significantly reducing c-Fos
same,c-Fos in the lateral septum,c-Fos,significantly increased c-Fos
same,c-Fos in the medial striatum,c-Fos,significantly reducing c-Fos
same,c-Fos in the motor cortex,c-Fos,significantly reducing c-Fos
same,c-Fos in the solitary nucleus,c-Fos,significantly increased c-Fos
